US20120295838A1, “Selective poly-substituted glycine antibiotics and related compositions” (priority 2008, published 2012)
In brackets after ≈: the same amount, converted by molar mass. Like-named read-outs stand apart in the source and are kept apart here. Numbered stars: 1 amine (or outer) side, 2 acyl side, 3 side chain; on linkers, the order of the positions; unused ones are H or OH. Square brackets hold non-standard residues; d marks the D form. Ends that are not written are not given here. Peptide text beside a SMILES is read from it. X1 = CC(C)[C@H](C)N(CC(=O)[*:2])[*:1]; Nspe = C[C@H](NCC(=O)O)c1ccccc1; Nphe = O=C(O)CNCc1ccccc1; Nlys = NCCCCNCC(=O)O

Columns and labels:
Assay type in all cases: cell-based
[1] = test system: Enterococcus faecalis 99; details: for Selectivity ratio (SR): Table 7B, 10% hemolytic dose divided by MIC
Protocol: (§1) Antibacterial assays. MICs were determined according to CLSI M7-A6 protocols in a 96-well microtiter plate. In test wells, 50 uL bacterial inoculum (5×10^5 CFU/ml) in Mueller-Hinton broth (MHB) was added to 50 μL peptoid solution in MHB (prepared by 1:2 serial dilutions). Positive controls contained 50 μL inoculum and 50 μL MHB without peptoid. […] MIC values reported were reproducible between three independent experimental replicates, each consisting of two parallel trials. Broad-spectrum antimicrobial susceptibility testing was performed against BSL2 pathogens by Nova Biologicals, Inc. (Conroe, Tex.).
(§2) Broad-spectrum antibacterial assays. MICs of compounds were determined by microdilution procedure in Mueller-Hinton broth (MHB) in accordance with CLSI M7-A6 protocols in a manner similar to that described for the screen antibacterial assays. Inoculated microtiter plates were incubated at 35° C. for 24 hours prior to the result being recorded. Four ATCC strains that were used as standards are recommended by CLSI: Pseudomonas aeruginosa ATCC 27853, Escherichia coli ATCC 25922, Staphylococcus aureus ATCC 29213 and Enterococcus faecalis ATCC 29212. Other strains from the ATCC collection include Proteus vulgaris ATCC 49132, Proteus mirabilis ATCC 35659, Klebsiella pneumoniae ATCC 33495, Enterobacter aerogenes ATCC 35029 and Serratia marcescens ATCC 13880. S. aureus NRS100 (COL) is a well characterized methicillian-resistant S. aureus (MRSA) strain. The strains S. aureus VAN1 and S. aureus VAN2, vancomycin-resistant MRSA strains that were isolated in Michigan and Pennsylvania, were the first vancomycin-resistant strains clinically isolated. S. aureus NRS 119 and S. aureus NRS 120 are linezolid-resistant isolates from the Network on Antimicrobial Resistance in S. aureus (NARSA) collection. E. faecalis 99 and E. faecium 106 are vancomycin-resistant enterococcal strains.

[2] = test system: Enterobacter aerogenes ATCC 35029; details: for Selectivity ratio (SR): Table 7B, 10% hemolytic dose divided by MIC
Protocol: as §1, §2

[3] = test system: Staphylococcus aureus ATCC 29213; details: for Selectivity ratio (SR): Table 7B, 10% hemolytic dose divided by MIC
Protocol: as §1, §2

[4] = test system: Proteus vulgaris ATCC 49132; details: for Selectivity ratio (SR): Table 7B, 10% hemolytic dose divided by MIC
Protocol: as §1, §2

[5] = test system: Staphylococcus aureus NRS119; details: for Selectivity ratio (SR): Table 7B, 10% hemolytic dose divided by MIC, S. aureus NRS119
Protocol: as §1, §2

[6] = test system: Escherichia coli ATCC 25922; details: for Selectivity ratio (SR): Table 7B, 10% hemolytic dose divided by MIC
Protocol: as §1, §2

[7] = test system: Pseudomonas aeruginosa ATCC 27853; details: for Selectivity ratio (SR): Table 7B, 10% hemolytic dose divided by MIC
Protocol: as §1, §2

[8] = test system: Enterococcus faecalis ATCC 29212; details: for Selectivity ratio (SR): Table 7B, 10% hemolytic dose divided by MIC
Protocol: as §1, §2

[9] = test system: Enterococcus faecium 106; details: for Selectivity ratio (SR): Table 7B, 10% hemolytic dose divided by MIC
Protocol: as §1, §2

Row | Molecule | Selectivity ratio (SR) ([1]; E. faecalis 99) | Selectivity ratio (SR) ([2]; E. aerogenes ATCC 35029) | Selectivity ratio (SR) ([3]; S. aureus ATCC 29213) | Selectivity ratio (SR) ([4]; P. vulgaris ATCC 49132) | Selectivity ratio (SR) [5] | Selectivity ratio (SR) ([6]; E. coli ATCC 25922) | Selectivity ratio (SR) ([7]; P. aeruginosa ATCC 27853) | Selectivity ratio (SR) ([8]; E. faecalis ATCC 29212) | Selectivity ratio (SR) ([9]; E. faecium 106) | further results
1 | CC(C)[C@H](C)N(CC(=O)N(CC(=O)N(CCCCN)CC(=O)N(CC(=O)N(CC(=O)N(CCCCN)CC(=O)N(CC(=O)N(CC(=O)N(CCCCN)CC(=O)N(CC(=O)N(CC(N)=O)[C@@H](C)c1ccccc1)[C@@H](C)C(C)C)[C@@H](C)c1ccccc1)[C@@H](C)C(C)C)[C@@H](C)c1ccccc1)[C@@H](C)C(C)C)[C@@H](C)c1ccccc1)C(=O)CNCCCCN [1-Nsdp2,5,8,11, H-(Nlys-Nsdp-Nspe)4-NH2] (H-[Nlys][X1][Nspe][Nlys][X1][Nspe][Nlys][X1][Nspe][Nlys][X1][Nspe]-NH2) | 2.9 | 5.8 | 23 | 5.8 | 12 | 23 | 12 | 23 | 46 | MIC [1]; 99: 64 mg/L (≈ 38 µM); MIC ([2]; ATCC 35029): 32 mg/L (≈ 19 µM); MIC ([3]; ATCC 29213): 8 mg/L (≈ 4.75 µM); MIC ([4]; ATCC 49132): 32 mg/L (≈ 19 µM); MIC ([5]; NRS119): 16 mg/L (≈ 9.51 µM); MIC ([6]; ATCC 25922): 8 mg/L (≈ 4.75 µM); MIC ([7]; ATCC 27853): 16 mg/L (≈ 9.51 µM); MIC ([8]; ATCC 29212): 8 mg/L (≈ 4.75 µM); MIC [9]; 106: 4 mg/L (≈ 2.38 µM)
2 | GIGKFLKKAKKFGKAFVKILKK-NH2 [pexiganan, reference compound] | 1.4 | 5.7 | 5.7 | 5.7 | 2.8 | 23 | 46 | 5.7 | 46 | MIC ([1]; Table 7A, E. faecalis 99): 128 mg/L; MIC ([2]; Table 7A, E. aerogenes ATCC 35029): 32 mg/L; MIC ([3]; Table 7A, S. aureus ATCC 29213): 32 mg/L; MIC ([4]; Table 7A, P. vulgaris ATCC 49132): 32 mg/L; MIC ([5]; Table 7A, S. aureus NRS119 (linezolid-resistant)): 64 mg/L; MIC ([6]; Table 7A, E. coli ATCC 25922): 8 mg/L; MIC ([7]; Table 7A, P. aeruginosa ATCC 27853): 4 mg/L; MIC ([8]; Table 7A, E. faecalis ATCC 29212): 32 mg/L; MIC ([9]; Table 7A, E. faecium 106): 4 mg/L
3 | NCCCCNCC(=O)N(CC(=O)N(CC(=O)N(CCCCN)CC(=O)N(CC(=O)N(CC(=O)N(CCCCN)CC(=O)N(CC(=O)N(CC(=O)N(CCCCN)CC(=O)N(CC(=O)N(CC(N)=O)Cc1ccccc1)Cc1ccccc1)Cc1ccccc1)Cc1ccccc1)Cc1ccccc1)Cc1ccccc1)Cc1ccccc1)Cc1ccccc1 [1achiral, H-(Nlys-Npm-Npm)4-NH2] (H-[Nlys][Nphe][Nphe][Nlys][Nphe][Nphe][Nlys][Nphe][Nphe][Nlys][Nphe][Nphe]-NH2) | 4.9 | 2.4 | 39 | 9.8 | 19 | 19 | 19 | 19 | 79 | –
